Reference: patent US10053468B2, “Heterocyclic compound” (TAKEDA PHARMACEUTICAL COMPANY LIMITED, priority 2013, dated 2018)
Like-named read-outs stand apart in the source and are kept apart here.

Experiments:
RORγt [1] = biological target: T1, RORγt (Homo sapiens, UniProt P51449); assay: Cofactor recruitment test (Alpha Screen, biotinylated SRC-1 peptide); format: biochemical; settings: read-out: Signal value inhibitory rate at test compound 1 μM (%)
T1 sequence (P51449 1-497 isoform P51449-2): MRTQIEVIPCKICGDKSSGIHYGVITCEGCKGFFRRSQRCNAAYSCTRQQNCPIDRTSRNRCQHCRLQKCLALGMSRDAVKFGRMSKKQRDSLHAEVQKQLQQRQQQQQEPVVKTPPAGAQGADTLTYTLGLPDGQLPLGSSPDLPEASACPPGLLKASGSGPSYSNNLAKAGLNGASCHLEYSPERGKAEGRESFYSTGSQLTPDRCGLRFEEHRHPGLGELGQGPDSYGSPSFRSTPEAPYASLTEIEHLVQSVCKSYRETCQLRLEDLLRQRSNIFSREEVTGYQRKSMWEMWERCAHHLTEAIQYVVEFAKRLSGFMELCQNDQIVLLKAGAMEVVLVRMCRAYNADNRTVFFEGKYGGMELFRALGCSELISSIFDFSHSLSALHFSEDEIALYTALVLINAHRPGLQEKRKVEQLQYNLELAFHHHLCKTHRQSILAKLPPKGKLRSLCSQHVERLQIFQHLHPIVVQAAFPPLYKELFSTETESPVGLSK
Experimental: Cofactor Recruitment Test
Cofactor recruitment test was performed by Alpha Screen (Histidine Detection Kit, PerkinElmer) method. First, a test compound was diluted with an assay buffer (50 mM Tris-HCl (pH 7.5), 50 mM KCl, 1 mM DTT, 0.1% BSA) and added to a 384 well plate by 5 μL. […] The mixture was stood in a dark place for 1 hr, and the signal value was measured by Envision (PerkinElmer).

RORγt [2] = biological target: T1, RORγt; assay: Jurkat reporter test (human IL-17 ROR response element luciferase, RORγt vector); format: cell-based; settings: read-out: Luminescence level inhibitory rate at test compound 3 μM (%)
Outline: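 Luminescence (Bright-Glo, 10 min, RT) was measured after overnight compound treatment of electroporated Jurkat cells (1350 V, 10 ms interval, 3 pulses). The reaction medium was RPMI with 10% lipid-reduced FCS, 10 mM HEPES (pH 7.5) and 5 μM lovastatin.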

RORγt [3] = biological target: T1, RORγt; assay: RORγt binding test using fluorescent-labeled synthetic ligand (TR-FRET); settings: read-out: Binding inhibitory rate of fluorescent-labeled synthetic ligand to RORγt at test compound 1 μM (%)
Experimental: RORγt Binding Test Using Fluorescent-labeled Synthetic Ligand
The binding activity of the test compound to RORγt was measured by a time resolved fluorescence resonance energy transfer method (TR-FRET) utilizing histidine-tagged RORγt, fluorescent-labeled synthetic ligand, and terbium-labeled anti-histidine tag antibody (Invitrogen). First, a test compound diluted with an assay buffer (20 mM Tris-HCl (pH 7.5), 100 mM NaCl, 1 mM DTT, 0.1% BSA) was added to a 384 well plate by 3 μL. Then, RORγt diluted with an assay buffer to 240 nM was added by 3 μL, after which fluorescent-labeled synthetic ligand diluted with the assay buffer to 12 μM was added by 3 μL, and the mixture was stood at room temperature for 20 min. Thereafter, a terbium-labeled anti-histidine tag antibody diluted with the assay buffer to 8 nM was added by 3 μL. The mixture was stood at room temperature for 20 min, and fluorescence intensity (excitation wavelength 320 nm, fluorescence wavelength 520 nm, delay time 100 microseconds) was measured by Envision (PerkinElmer).

RORγt [4] = biological target: T1, RORγt; assay: RORγt binding test using fluorescent-labeled cholesterol (TR-FRET); settings: read-out: Binding inhibitory rate of fluorescent-labeled cholesterol to RORγt at test compound 1 μM (%)
Outline: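 After 20 min at room temperature with His-tagged RORγt and BODIPY-cholesterol in pH 7.5 Tris buffer (NaCl, DTT, BSA), compound wells got terbium anti-His antibody for another 20 min. Time-resolved FRET was read with excitation 320 nm, emission 520 nm and a 100 µs delay.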

[5] = test compound 3 μM, Jurkat cells

| inhibition at 1 µM (RORγt [4]) | inhibition at 3 µM (RORγt [2]; [5]) | Structure (SMILES) | inhibition at 1 µM (RORγt [1]) | inhibition at 3 µM (RORγt [2]; Jurkat) | inhibition at 1 µM (RORγt [3]) |
| --- | --- | --- | --- | --- | --- |
| 100% | 101% | COc1ccc2c(c1)CCN(C(=O)c1cc(O)no1)[C@H]2C(=O)Nc1ccc(C(C)(C)C)c(F)c1 [Example 13, (1R)-N-(4-tert-butyl-3-fluorophenyl)-2-((3-hydroxy-1,2-oxazol-5-yl)carbonyl)-6-methoxy-1,2,3,4-tetrahydroisoquinoline-1-carboxamide] | 80.4% | – | 102% |
| 102% | 102% | COc1ccc2c(c1)CCN(C(=O)[C@@H]1CNC(=O)C1)[C@H]2C(=O)Nc1ccc(C(C)(C)C)c(F)c1 [Example 25, (1R)-N-(4-tert-butyl-3-fluorophenyl)-6-methoxy-2-(((3S)-5-oxopyrrolidin-3-yl)carbonyl)-1,2,3,4-tetrahydroisoquinoline-1-carboxamide] | 85.8% | – | 101% |
| 97.7% | 102% | COc1ccc2c(c1)CCN(C(=O)[C@H]1CNC(=O)C1)[C@H]2C(=O)Nc1ccc(C(C)(C)C)c(F)c1 [Example 26, (1R)-N-(4-tert-butyl-3-fluorophenyl)-6-methoxy-2-(((3R)-5-oxopyrrolidin-3-yl)carbonyl)-1,2,3,4-tetrahydroisoquinoline-1-carboxamide] | 81.5% | – | 101% |
| 102% | 98.9% | COc1ccc2c(n1)CCN(C(=O)Cc1cc(O)no1)C2C(=O)Nc1ccc(C(C)(C)C)c(F)c1 (stereo not drawn) [Example 41, N-(4-tert-butyl-3-fluorophenyl)-6-((3-hydroxy-1,2-oxazol-5-yl)acetyl)-2-methoxy-5,6,7,8-tetrahydro-1,6-naphthyridine-5-carboxamide] | 74.9% | – | 102% |
| 102% | 101% | COc1ccc2c(c1)CCN(C(=O)Cc1cc(O)no1)[C@H]2C(=O)Nc1cc(F)c(C(C)(C)C)c(F)c1 [Example 43, (1R)-N-(4-tert-butyl-3,5-difluorophenyl)-2-((3-hydroxy-1,2-oxazol-5-yl)acetyl)-6-methoxy-1,2,3,4-tetrahydroisoquinoline-1-carboxamide] | 88.3% | – | 102% |
| 103% | 99.6% | COc1ccc2c(c1)CCN(C(=O)Cc1cc(O)no1)[C@H]2C(=O)Nc1cc(F)c2c(c1)CCC2(C)C [Example 45, (1R)-N-(7-fluoro-1,1-dimethyl-2,3-dihydro-1H-inden-5-yl)-2-((3-hydroxy-1,2-oxazol-5-yl)acetyl)-6-methoxy-1,2,3,4-tetrahydroisoquinoline-1-carboxamide] | 76.9% | – | 102% |
| 100% | 99.9% | COc1ccc2c(c1)CCN(C(=O)CCc1cc(O)no1)[C@H]2C(=O)Nc1cc(F)c2c(c1)CCC2(C)C [Example 63, (1R)-N-(7-fluoro-1,1-dimethyl-2,3-dihydro-1H-inden-5-yl)-2-(3-(3-hydroxy-1,2-oxazol-5-yl)propanoyl)-6-methoxy-1,2,3,4-tetrahydroisoquinoline-1-carboxamide] | 70% | – | 102% |
| – | – | CCOc1ccc2c(c1)CCN(C(=O)N1CC(CC(=O)O)C1)[C@H]2C(=O)Nc1cc(F)c([Si](C)(C)C)c(F)c1 [Example 231, (1-(((1R)-1-((3,5-difluoro-4-(trimethylsilyl)phenyl)carbamoyl)-6-ethoxy-3,4-dihydroisoquinolin-2(1H)-yl)carbonyl)azetidin-3-yl)acetic acid] | 96% | 101% | 101% |
| – | – | C[Si](C)(C)c1c(F)cc(NC(=O)[C@H]2c3ccc(S(C)(=O)=O)cc3CCN2C(=O)CCCC(=O)O)cc1F [Example 235, 5-((1R)-1-((3,5-difluoro-4-(trimethylsilyl)phenyl)carbamoyl)-6-(methylsulfonyl)-3,4-dihydroisoquinolin-2(1H)-yl)-5-oxopentanoic acid] | 45% | 93% | 102% |
| – | – | CCOc1ccc2c(c1)CCN(C(=O)NCCCC(=O)O)[C@H]2C(=O)Nc1cc(F)c([Si](C)(C)C)c(F)c1 [Example 238, 4-((((1R)-1-((3,5-difluoro-4-(trimethylsilyl)phenyl)carbamoyl)-6-ethoxy-3,4-dihydroisoquinolin-2(1H)-yl)carbonyl)amino)butanoic acid] | 92% | 100% | 101% |
| – | – | CCOc1ccc2c(c1)CCN(C(=O)CC(C)(O)CC(=O)O)[C@H]2C(=O)Nc1cc(F)c([Si](C)(C)C)c(F)c1 (stereo partly drawn) [Example 240, 5-((1R)-1-((3,5-difluoro-4-(trimethylsilyl)phenyl)carbamoyl)-6-ethoxy-3,4-dihydroisoquinolin-2(1H)-yl)-3-hydroxy-3-methyl-5-oxopentanoic acid] | 91% | 101% | 101% |
| – | – | COc1ccc2c(c1)CCN(C(=O)NCCCC(=O)O)[C@H]2C(=O)Nc1cc(F)c([Si](C)(C)C)c(F)c1 [Example 242, 4-((((1R)-1-((3,5-difluoro-4-(trimethylsilyl)phenyl)carbamoyl)-6-methoxy-3,4-dihydroisoquinolin-2(1H)-yl)carbonyl)amino)butanoic acid] | 94% | 101% | 101% |
| – | – | COc1ccc2c(c1)CCN(C(=O)[C@@H](O)CCC(=O)O)[C@H]2C(=O)Nc1cc(F)c([Si](C)(C)C)c(F)c1 [Example 248, (4S)-5-((1R)-1-((3,5-difluoro-4-(trimethylsilyl)phenyl)carbamoyl)-6-methoxy-3,4-dihydroisoquinolin-2(1H)-yl)-4-hydroxy-5-oxopentanoic acid] | 87% | 100% | 101% |
| – | – | C[Si](C)(C)c1c(F)cc(NC(=O)[C@H]2c3ccc4c(c3CCN2C(=O)CCCC(=O)O)OCO4)cc1F [Example 254, 5-((6R)-6-((3,5-difluoro-4-(trimethylsilyl)phenyl)carbamoyl)-8,9-dihydro[1,3]dioxolo[4,5-f]isoquinolin-7(6H)-yl)-5-oxopentanoic acid] | 101% | 102% | 102% |
| – | 83% | CC1(C)CCc2cc(NC(=O)[C@H]3c4ccc5c(c4CCN3C(=O)CCCC(=O)O)OCO5)cc(F)c21 [Example 256, 5-((6R)-6-((7-fluoro-1,1-dimethyl-2,3-dihydro-1H-inden-5-yl)carbamoyl)-8,9-dihydro[1, 3]dioxolo[4,5-f]isoquinolin-7 (6H)-yl)-5-oxopentanoic acid] | 102% | – | 100% |

| Structure (SMILES) | inhibition at 1 µM (RORγt [4]) | inhibition at 3 µM (RORγt [2]; [5]) | inhibition at 1 µM (RORγt [1]) | inhibition at 3 µM (RORγt [2]; Jurkat) | inhibition at 1 µM (RORγt [3]) |
| --- | --- | --- | --- | --- | --- |
| COc1ccc2c(c1)CCN(C(=O)c1cc(O)no1)[C@H]2C(=O)Nc1ccc([Si](C)(C)C)c(F)c1 [Example 7, (1R)-N-(3-fluoro-4-(trimethylsilyl)phenyl)-2-((3-hydroxy-1,2-oxazol-5-yl)carbonyl)-6-methoxy-1,2,3,4-tetrahydroisoquinoline-1-carboxamide] | 102% | – | 92.8% | 101% | 101% |
| COc1ccc2c(c1)OCCN(C(=O)Cc1cc(O)no1)[C@H]2C(=O)Nc1cc(F)c([Si](C)(C)C)c(F)c1 [Example 56, (5R)-N-(3,5-difluoro-4-(trimethylsilyl)phenyl)-4-((3-hydroxy-1,2-oxazol-5-yl)acetyl)-8-methoxy-2,3,4,5-tetrahydro-1,4-benzoxazepine-5-carboxamide] | 101% | – | 61.3% | 99.9% | 102% |
